From ChEMBL document CHEMBL1201862, “PubChem BioAssay data set” (2004)
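Interpolation was linear, between the two tested concentrations surrounding the appropriate level; five concentrations were tested over 48 hours in 96-well plates. GI50 = concentration required for 50% inhibition of growth.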 The source made the active and inactive calls. No stated cut-off is given here; in the data, active = GI50 up to about 1.1 µM and inactive = higher.

How the values were obtained:
Experiment in all cases: NCI-60 cell line screen, 48 h
COLO 205 = test system: COLO 205
KM12 = test system: KM12
SF-268 = test system: SF-268
PC-3 = test system: PC-3
SK-OV-3 = test system: SK-OV-3
SF-539 = test system: SF-539
UACC-257 = test system: UACC-257
786-0 = test system: 786-0
SW-620 = test system: SW-620
A549 = test system: A549
SK-MEL-2 = test system: SK-MEL-2
U-251 = test system: U-251
NCI/ADR-RES = test system: NCI/ADR-RES
SNB-19 = test system: SNB-19
RPMI-8226 = test system: RPMI-8226
MDA-N = test system: MDA-N
MCF7 = test system: MCF7
UACC-62 = test system: UACC-62
EKVX = test system: EKVX
OVCAR-4 = test system: OVCAR-4
HOP-92 = test system: HOP-92
SK-MEL-28 = test system: SK-MEL-28
MDA-MB-231 = test system: MDA-MB-231
OVCAR-8 = test system: OVCAR-8
SNB-75 = test system: SNB-75
UO-31 = test system: UO-31
SF-295 = test system: SF-295
SK-MEL-5 = test system: SK-MEL-5
Hs-578T = test system: Hs-578T
K562 = test system: K562
HCT-116 = test system: HCT-116
A498 = test system: A498
MDA-MB-435 = test system: MDA-MB-435
T47D = test system: T47D
M14 = test system: M14
HCC 2998 = test system: HCC 2998
NCI-H460 = test system: NCI-H460
HT-29 = test system: HT-29
NCI-H23 = test system: NCI-H23
MOLT-4 = test system: MOLT-4
CCRF-CEM = test system: CCRF-CEM
CAKI-1 = test system: CAKI-1
TK-10 = test system: TK-10
DU-145 = test system: DU-145
OVCAR-3 = test system: OVCAR-3
HL-60 = test system: HL-60
OVCAR-5 = test system: OVCAR-5
LOX IMVI = test system: LOX IMVI
IGROV-1 = test system: IGROV-1
HOP-62 = test system: HOP-62
RXF 393 = test system: RXF 393
Malme-3M = test system: Malme-3M
NCI-H522 = test system: NCI-H522
ACHN = test system: ACHN
SN12C = test system: SN12C
BT-549 = test system: BT-549
HCT-15 = test system: HCT-15
NCI-H226 = test system: NCI-H226

Measured: GI50

COC(=O)/C=C\C(C#N)(C#N)/N=C/c1cccc(OC)c1
1.93 µM: HCT-15
inactive: COLO 205 2.15 µM | KM12 16.4 µM | SF-268 17.2 µM | PC-3 15.8 µM | SK-OV-3 25.3 µM | SF-539 2.53 µM | UACC-257 14 µM | 786-0 3.51 µM | SW-620 2.13 µM | A549 17.9 µM | SK-MEL-2 17.1 µM | U-251 15.9 µM | NCI/ADR-RES 14.4 µM | SNB-19 23.3 µM | RPMI-8226 2.71 µM | MDA-N 7.03 µM | MCF7 4.94 µM | UACC-62 15.2 µM | EKVX 11.6 µM | OVCAR-4 6.67 µM | HOP-92 2.3 µM | SK-MEL-28 14.3 µM | MDA-MB-231 13.2 µM | OVCAR-8 3.13 µM | SNB-75 15.9 µM | UO-31 2.74 µM | SF-295 32.7 µM | SK-MEL-5 16.8 µM | Hs-578T 18.1 µM | K562 11.1 µM | HCT-116 3.44 µM | A498 18.6 µM | MDA-MB-435 6.5 µM | T47D 4.8 µM | M14 4.12 µM | HCC 2998 16.3 µM | NCI-H460 20 µM | HT-29 3.77 µM | NCI-H23 6.9 µM | MOLT-4 1.9 µM | CCRF-CEM 1.72 µM | CAKI-1 1.92 µM | TK-10 1.91 µM | DU-145 14.5 µM | OVCAR-3 11.5 µM | HL-60 > 100 µM | OVCAR-5 8.49 µM | LOX IMVI 7.16 µM | IGROV-1 11.7 µM | HOP-62 > 42.7 µM | RXF 393 3.18 µM | Malme-3M 1.71 µM | NCI-H522 1.38 µM | ACHN 2.61 µM | SN12C 11.9 µM | BT-549 7.74 µM | NCI-H226 14.3 µM
